Data reported in publication PMC8269394, “Characterization of an Atypical Trypanosoma brucei Hsp70 Demonstrates Its Cytosolic-Nuclear Localization and Modulation by Quercetin and Methylene Blue” (International Journal of Molecular Sciences, 2021).

Key:
Experiment in all cases: ATPase assay, colorimetric phosphate release
Assay type in all cases: biochemical
[1] = biological target: T1, TbHsp70.c (Trypanosoma brucei, UniProt Q383E9); conditions: 30 µM quercetin; 0.4 µM protein; 600 µM ATP; 37 °C; no Tbj2
T1 construct: gene Tb11.01.3080

[2] = biological target: T2, TcHsp70B (Trypanosoma cruzi, UniProt P05456); conditions: 30 µM quercetin; 0.4 µM protein; 600 µM ATP; 37 °C; no Tbj2
T2 construct: gene HSP70

[3] = biological target: T3, TcHsp70B-Tbj2 (Trypanosoma cruzi, UniProt P05456); conditions: 30 µM quercetin; 0.4 µM each protein; 600 µM ATP; 37 °C
T3 construct: gene HSP70; mixed species: recombinant T. cruzi TcHsp70B with recombinant T. brucei co-chaperone Tbj2; with Chaperone protein DnaJ, putative (type I J-protein Tbj2, Trypanosoma brucei)

[4] = biological target: T4, TbHsp70.c-Tbj2 (Trypanosoma brucei, UniProt Q383E9); conditions: 30 µM quercetin; 0.4 µM each protein; 600 µM ATP; 37 °C
T4 construct: gene Tb11.01.3080; recombinant purified TbHsp70.c with recombinant co-chaperone Tbj2 at equal concentration; with Chaperone protein DnaJ, putative (type I J-protein Tbj2)

[5] = biological target: T4, TbHsp70.c-Tbj2; conditions: 30 µM methylene blue; 1 µM each protein; 600 µM ATP; 37 °C; activator
From the text: ATPase assay, colorimetric phosphate release on TbHsp70.c-Tbj2 | in the presence of Tbj2, methylene blue enhanced the ATPase activity of TbHsp70.c

[6] = biological target: T1, TbHsp70.c; conditions: 600 µM ATP; 37 °C; no Tbj2
[7] = biological target: T2, TcHsp70B; conditions: 600 µM ATP; 37 °C; no Tbj2

T2 sequence (P05456 whole entry): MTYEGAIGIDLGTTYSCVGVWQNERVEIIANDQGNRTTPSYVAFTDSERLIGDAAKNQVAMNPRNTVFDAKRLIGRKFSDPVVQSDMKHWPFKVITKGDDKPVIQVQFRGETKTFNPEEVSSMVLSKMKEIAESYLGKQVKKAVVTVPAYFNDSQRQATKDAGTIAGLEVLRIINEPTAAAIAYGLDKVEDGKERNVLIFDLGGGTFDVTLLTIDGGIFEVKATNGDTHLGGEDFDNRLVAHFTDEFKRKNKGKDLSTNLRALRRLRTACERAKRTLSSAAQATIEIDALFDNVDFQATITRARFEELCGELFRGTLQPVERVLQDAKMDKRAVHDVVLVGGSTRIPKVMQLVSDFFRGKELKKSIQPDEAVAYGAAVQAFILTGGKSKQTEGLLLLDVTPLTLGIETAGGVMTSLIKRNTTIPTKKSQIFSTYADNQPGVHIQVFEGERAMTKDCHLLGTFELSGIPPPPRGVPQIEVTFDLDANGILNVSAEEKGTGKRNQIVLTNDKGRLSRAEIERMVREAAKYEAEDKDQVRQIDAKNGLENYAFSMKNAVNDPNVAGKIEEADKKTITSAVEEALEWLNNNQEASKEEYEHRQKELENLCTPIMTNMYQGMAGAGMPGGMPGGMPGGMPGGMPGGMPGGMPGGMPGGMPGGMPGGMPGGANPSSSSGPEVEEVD
T1 sequence (Q383E9 1-676): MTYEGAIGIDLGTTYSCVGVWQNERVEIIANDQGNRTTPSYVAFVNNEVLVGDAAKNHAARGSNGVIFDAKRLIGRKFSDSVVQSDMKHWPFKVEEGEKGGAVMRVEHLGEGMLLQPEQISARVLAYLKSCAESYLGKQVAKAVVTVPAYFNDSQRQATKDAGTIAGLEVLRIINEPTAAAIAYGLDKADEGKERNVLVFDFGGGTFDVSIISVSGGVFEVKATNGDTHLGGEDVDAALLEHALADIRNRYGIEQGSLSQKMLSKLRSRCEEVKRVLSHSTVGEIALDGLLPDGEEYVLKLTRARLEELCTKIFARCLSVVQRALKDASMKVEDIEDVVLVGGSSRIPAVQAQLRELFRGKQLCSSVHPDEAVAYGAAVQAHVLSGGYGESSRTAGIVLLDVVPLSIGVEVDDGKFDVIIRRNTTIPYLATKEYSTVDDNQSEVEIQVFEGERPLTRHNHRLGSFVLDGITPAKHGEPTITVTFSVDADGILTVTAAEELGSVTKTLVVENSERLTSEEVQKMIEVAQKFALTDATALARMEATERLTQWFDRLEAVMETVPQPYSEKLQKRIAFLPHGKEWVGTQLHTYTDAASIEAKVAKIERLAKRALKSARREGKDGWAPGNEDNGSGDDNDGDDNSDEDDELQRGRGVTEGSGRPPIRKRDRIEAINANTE
T4 sequence (Q383E9 1-676): as above
T4 sequence (Q585V4 1-404 partner): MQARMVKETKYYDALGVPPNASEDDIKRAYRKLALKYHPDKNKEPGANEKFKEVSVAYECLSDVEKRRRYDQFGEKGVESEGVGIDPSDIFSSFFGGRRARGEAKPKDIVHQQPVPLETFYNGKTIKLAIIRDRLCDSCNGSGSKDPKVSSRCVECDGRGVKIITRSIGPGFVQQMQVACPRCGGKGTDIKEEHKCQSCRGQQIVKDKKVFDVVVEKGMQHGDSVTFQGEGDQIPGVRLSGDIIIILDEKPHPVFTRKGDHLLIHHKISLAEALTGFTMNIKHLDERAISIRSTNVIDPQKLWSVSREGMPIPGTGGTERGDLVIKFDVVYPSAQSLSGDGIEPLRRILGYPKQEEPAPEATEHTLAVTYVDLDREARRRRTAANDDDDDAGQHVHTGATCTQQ
T3 sequence (P05456 whole entry): as the sequence (P05456 whole entry) above
T3 sequence (Q585V4 1-404 partner): as the sequence (Q585V4 1-404 partner) above

## O=c1c(O)c(-c2ccc(O)c(O)c2)oc2cc(O)cc(O)c12 [quercetin, 3,3′,4′,5,7-Pentahydroxyflavone]
[1]
  basal ATPase inhibition at 30 μM: Our findings suggest that quercetin inhibits the basal ATPase activity of TbHsp70.c
[2]
  fold inhibition of basal ATPase at 30 μM: 1.3 fold
[3]
  fold inhibition of Tbj2-stimulated ATPase at 30 μM: 1.4 fold
[4]
  fold inhibition of Tbj2-stimulated ATPase at 30 μM: 9.3 fold

## CN(C)c1ccc2nc3ccc(=[N+](C)C)cc-3sc2c1 [methylene blue]
[5]
  fold increase in Tbj2-stimulated ATPase at 30 μM: 1.5 fold

## Nc1ncnc2c1ncn2[C@@H]1O[C@H](COP(=O)(O)OP(=O)(O)OP(=O)(O)O)[C@@H](O)[C@H]1O [ATP]
[6]
  ATPase assay, colorimetric phosphate release: Inorganic phosphate released by ATP in the presence of each Hsp70 was monitored
[7]
  ATPase assay, colorimetric phosphate release: Inorganic phosphate released by ATP in the presence of each Hsp70 was monitored
